Values joined by “and” are separate entries in the source; they are usually repeats but may differ in a detail not shown here. Equal values may be shown once.
Legend:
[1] = test system: HEK293 cells stably expressing αS-A53T-YFP; experiment: ProteoStat dye assay and confocal imaging, ligand post treatment, αS fibers templated intracellular aggregation; format: cell-based, human
Description: To test the antagonist activity of NS163 against intracellular αS aggregation, we utilized HEK293 cells, which stably express αS-A53T-YFP[23],[24],[50]. The endogenous monomeric αS-A53T-YFP template into fibers when transfected with exogenously added αS fibers in the presence of Lipofectamine 3000 (Fig. 3a)[23],[24],[50]. In this assay, preformed fibers of αS (5 µM monomer concentration) were introduced to the HEK cells, followed by the introduction of NS163 to the cells after 8 h, which is the time required for the internalization of aS fibers, as we have shown recently. The HEK cells were incubated for an additional […], which is the total time (24 h) required for the complete maturation of aS inclusions in the HEK cells. To test the effect of the NS163 on the intracellular inclusions (αS-A53T-YFP), we used confocal imaging and a ProteoStat dye-based assay recently developed in our lab[24]. […] NS163 was able to reduce the intracellular inclusions of αS by 76% and 90% at 10 µM and 25 µM, respectively, measured using the ProteoStat dye-based assay (Fig. 5h, +NS163). […] To test their antagonist activity against intracellular αS aggregation, we first determined the cell permeability of the tripyridyls using the PAMPA (Fig. 5a, Supplementary Fig. 18a). […]

[2] = test system: HEK293 cells stably expressing αS-A53T-YFP; experiment: ProteoStat dye assay, ligand pre-treatment, αS fibers templated intracellular aggregation; format: cell-based, human; details: ligand 10 µM for 16 h, washed, then 5 µM αS fibers for 24 h
Description: We further tested NS163 against intracellular αS aggregation using same HEK293 cells (express αS-A53T-YFP)[23],[24],[50]. In this assay, we added NS163 (10 µM) to the HEK cells and incubated the cells for 16 h, washed the cells and treated with the preformed fibers of αS (5 µM monomer) and incubated for an additional 24 h. The ProteoStat dye-based intensity of HEK cells treated with αS fibers was ~4 fold higher than the control (no fibers) (Supplementary Fig. 19). NS163 was a very potent antagonist as it was able to reduce the intracellular inclusions by 80% at 10 µM, measured using the ProteoStat dye-based assay (Supplementary Fig. 19). Under matched conditions, 10 µM NS132 was able to reduce the intracellular inclusions by 57% (Supplementary Fig. 19). The higher antagonist activity of NS163 than NS132 is likely due to the better cell permeability of the former. […] It is important to point out that our potent ligands (NS163 and NS132) were able to inhibit αS preformed fibers templated aggregation of both monomeric WT αS and A53T αS mutant. It has been shown that the WT αS fibers templated aggregation of WT αS and its mutants is predominantly dependent on the interaction of the fibers with the N-terminus of the monomeric WT αS and its mutants[62],[68],[69]. […]

Cc1ccc(NC(=O)c2ccc(NC(=O)c3ccc([N+](=O)[O-])c(NCCc4c[nH]c5ccccc45)n3)c(NCC3CCCCC3)n2)c(OCC(=O)O)n1 [NS132]
ProteoStat dye intensity (raw), individual trials ([1]; 5 μM αS fibers, ligand 10 uM added after 8 h): 108 and 126 and 118 and 122 and 111 and 132 and 128 and 121 and 105 and 116 and 120 and 113
reduction of intracellular inclusions of αS (ProteoStat) ([1]; ligand 10 µM added 8 h after 5 µM αS fibers): 47%
reduction of intracellular inclusions (ProteoStat) [2]: 57%

From PMC11061149, “Protein mimetic 2D FAST rescues alpha synuclein aggregation mediated early and post disease Parkinson’s phenotypes” (Nature Communications, 2024)
